Legend:
[1] = system: Hela cells; assay: Western blot of autophagy markers (autophagy flux) in Hela wild-type and TLK2 KO cells; format: cell-based; conditions: 6 hours
Experimental: Hela cells were collected, and were added in an RIPA lysis buffer added with a protease inhibitor and PMSF (50 mM Tris, 150 mM NaCl, 1% Triton X-100, 1% sodium deoxytholate and 0.1% SDS) for lysis on ice for 30 min. Subsequently, ultrasonication was performed on ice under the conditions of 40 w 3 sec on/3 sec off for 1 minute, centrifugation was performed at 12,000 rpm in a centrifugal machine at 4° C. for 15 min, a supernatant was collected, diluted by an SDS sample-loading buffer and stewed at 95° C. for 5 min. […] of a protein sample was loaded, and gel electrophoresis was performed under a constant voltage of 80 V When bromophenol blue reached the bottom, membrane transfer was performed overnight at a constant current of 130 mA to transfer the protein from a gel onto a PVDF membrane. The membrane was blocked with 5% skim milk at room temperature for 1 hour, and was washed with TBST for three times, with 5 min for each time. A primary antibody properly diluted was incubated overnight at 4° C., and washed with TBST for three times, with 5 min for each time. An HRP secondary antibody was diluted in 1:10000, incubated at room temperature for 1 hour, and washed with TBST for three times, with 5 min for each time. Western blot was developed by ECL chemiluminescence.
In TLK2 KO cells, the LC3-II/LC3-I ratio was increased, and a P62 protein level was reduced (FIG. 14). […] The autophagy is a dynamic process, for which a level may be elevated accurately through a process of testing an autophagy flux. By using a drug to activate or block an autophagy pathway, the autophagy flux smoothness could be evaluated.
Raparnycin (Rapa) was used for activating the autophagy, and bafilomycin A1 (Baf A1) was used for inhibiting the autophagy. Cells were treated with Raparnycin (Rapa, 40 nM) and bafilomycin A1 (Baf A1, 100 nM) for 6 hours, respectively. […] This indicated smooth autophagy flux in the TLK2 KO cells.

[2] = system: cell calcium-overload model; assay: Drug screening in a cell calcium-overload model (LDH assay); format: cell-based; conditions: screening of micro-molecule library, PMZ as positive control
Description: The culture solution was removed, and the cells were washed with PBS. A fresh culture solution was used (it was recommended to use a low serum culture solution containing 1% serum or a suitable serum-free culture solution), and various culture wells were divided into the following groups: cell-free culture solution wells (background blank control wells), control cell wells not treated with a drug (sample control wells), cell wells used for subsequent lysis, not treated with a drug (maximum sample enzyme activity control wells), and drug-treated cell wells (drug-treated sample wells), and these wells were labeled properly.
Proper drug treatment was provided according to experiment requirements, for example, about 0-10 μL of a specific drug was added for stimulation; different concentrations and different treatment time could be set, and suitable drug solvent was required to be added to the control wells for continued culture as routine against the control. At 1 hour before a predetermined testing time point, the cell culture plate was taken out of a cell incubator, an LDH release reagent provided by a reagent kit was added to the “maximum sample enzyme activity control wells”, and the addition amount was equal to 10% of the volume of the original culture solution. After the addition of the LDH release reagent, the cells were blown repeatedly for several times for uniform mixing, and then were incubated in the cell incubator.
After the predetermined time expired, the cell culture plate was centrifuged with a multi-well plate centrifugal machine at 400 g for 5 min. 120 μL of a supernatant was respectively taken from each well and added to corresponding wells of a new 96-well plate for subsequent sample testing. 60 μL of an LDH test working solution was respectively added to each well. […] Then, absorbance was measured at 490 nm. […] Calculation was performed (the background blank control well absorbance was deducted from the measured absorbance of each group). […]

[3] = system: TLK2; assay: Purified GST-TLK2 incubated with lysis buffer of ionomycin-treated (calcium-overload) Hela cells: Commassie staining, phos-tag SDS-PAGE, mass spectrometry; format: biochemical
Experimental: TLK2 cDNA was cloned to a PGEX-6P-1 vector containing a GST tag, a recombinant plasmid was expressed into BL21 chemical competent cells for induced expression at 180 rpm at 20° C. for 20 hours under an induction condition of 0.5 mM IPTG. GST-TLK2 was purified according to the standard steps of Beyotime GST tag protein purification kit. Hela cells were treated with 17 μM ionomycin for 3 hours, and when a cell density reached 70%, the cells were collected. Lysis was performed in a lysis buffer (10 mM Tris, 150 mM NaCl, 2 mM EDTA and 0.5% TritonX-100). Centrifugation was performed at 12,000 rmp at 4° C. for 15 min, and a supernatant was collected. 3 μg of a GST-TLK2 purified protein and 200 μg of a cell lysis buffer were mixed, and placed overnight in a vertical shaker at 4° C. Subsequently, Glutathione. Sepharose 4B condensate beads were added, and rotation proceeded at room temperature for 1 hour. The mixture was washed with WB and IP lysis buffers for 6 times, each of which the mixture was centrifugated in a centrifugal machine at 2,000 rmp at 4° C. for 5 min. The product was diluted by an SDS sample-loading buffer and stewed at 95° C. for 5 min, or a TLK2 protein was cleaved overnight by PreScission Protease at 4° C. The final result was obtained by Commassie staining.
The purified TLK2 protein was incubated with a cell lysis buffer (inducing calcium overload) treated with ionomycin or a normal cell lysis buffer. […] Similar change also appeared after the TLK2 protein was incubated with a TLK2 KO cell lysis buffer treated with the ionomycin.
TLK2 cDNA was cloned to a PGEX-6P-1 vector containing a GST tag, a recombinant plasmid was expressed into BL21 chemical competent cells for induced expression at 180 rpm at 20° C. for 20 hours under an induction condition of 0.5 mM IPTG. GST-TLK2 was purified according to the standard steps of Beyotime GST tag protein purification kit. […]
Phos-tag was a functional molecule which could be in specific binding with phosphate ions. […] The content of the phosphorylated protein could be analyzed by the change in the migration rate. […]

[4] = system: TLK2; assay: In-vitro kinase experiment (ATP consumption, MBP substrate); format: biochemical; conditions: TLK2+Ionomycin group compared with normal treatment group
Experimental: 1 μL of ATP (0.2 mM), 1 μg of a TLK2 purified protein and 20 μg of a substrate were added to a 50 μL reaction system, the remaining volume was supplemented with a kinase buffer (10 mM Tris pH 7.5, 50 mM KCL, 10 mM MgCl2 and 1 mM DTT), and a reaction was performed at room temperature for 15 min. An MBP protein was taken as a positive control substrate, and a PGK1 protein was taken as a negative control substrate. 50 ul of a Kinase-Lumi™ superstrong chemiluminescence kinase assay reagent was added and uniformly mixed to have a reaction in the dark at room temperature for 10 min. Then, a multifunctional microplate reader was used for chemiluminescence testing.
TLK2 kinase activity was verified by an in-vitro kinase experiment. In the in-vitro kinase experiment, a myelin basic protein (MBP) could be used as a substrate for multiple kinases, a group to which a TLK2 (No TLK2) protein was not added was taken as a control, and in a normal treatment (TLK2+Control) and an ionomycin treatment group (TLK2+Ionomycin), the same amount of the TLK2 protein reacted with the same amount of the MBP protein. A reduced ATP level reflected the TLK2 kinase activity.

[5] = wild-type Hela cells, Rapa 40 nM or Baf A1 100 nM
[6] = lysis buffer of Hela cells treated with 17 μM ionomycin for 3 hours

Compound	LC3-II/LC3-I ratio [1, 5]	P62 protein level [1, 5]	calcium-overload injury inhibition activity [2]	also measured
CO[C@H]1C[C@@H]2CC[C@@H](C)[C@@](O)(O2)C(=O)C(=O)N2CCCC[C@H]2C(=O)O[C@H]([C@H](C)C[C@@H]2CC[C@@H](O)[C@H](OC)C2)CC(=O)[C@H](C)/C=C(\C)[C@@H](O)[C@@H](OC)C(=O)[C@H](C)C[C@H](C)/C=C/C=C/C=C/1C [Rapa, Raparnycin]	increased	reduced	–	P62 protein level ([1]; TLK2 KO Hela cells, Rapa 40 nM): further reduce
O=c1[nH]c(C2CCCN2)nc2c1oc1ccc(Cl)cc12 (stereo not shown) [XL413]	–	–	had calcium-overload injury inhibition activity	–
C[C@H](CCC(=O)O)C[C@H](C)C[C@H](C)C(=O)/C=C(\O)[C@H](C)C[C@H](C)C/C=C/[C@@H](C)[C@@H](O)[C@@H](C)[C@@H](O)C[C@@H]1CC[C@@](C)([C@H]2CC[C@@](C)([C@@H](C)O)O2)O1 [ionomycin, Ionomycin]	–	–	–	GST-TLK2 protein band (Commassie staining) [3, 6]: moved upward; additional TLK2 phosphorylation sites compared with the control group (mass spectrometry) [3, 6]: 15; TLK2 phosphorylation (phos-tag SDS-PAGE) ([3]; normal and TLK2 KO cell lysis buffer after 17 μM ionomycin, 3 hours): could promote TLK2 phosphorylation; TLK2 kinase activity (ATP consumption) [4]: could consume much ATP
CC[C@@H]1C(=O)N(C)c2cnc(Nc3ccc(C(=O)N[C@H]4CC[C@H](N5CCN(CC6CC6)CC5)CC4)cc3OC)nc2N1C(C)C [Volasertib]	–	–	had calcium-overload injury inhibition activity	–
CO/C1=C\C(C)=C\[C@@H](C)[C@@H](O)[C@@H](C)C/C(C)=C/C=C/[C@H](OC)[C@@H]([C@@H](C)[C@@H](O)[C@H](C)[C@@]2(O)C[C@@H](O)[C@H](C)[C@@H](C(C)C)O2)OC1=O [Baf A1, bafilomycin A1]	elevated	elevated	–	autophagy activated by TLK2 KO ([1]; TLK2 KO Hela cells, Baf A1 100 nM): blocked
O=C(O[C@@H]1Cc2c(O)cc(O)cc2O[C@@H]1c1cc(O)c(O)c(O)c1)c1cc(O)c(O)c(O)c1 [Epigallocatechin Gallate]	–	–	had calcium-overload injury inhibition activity	–
